Data reported in patent publication US10450322B2, “Low molecular weight derivatives of carboxamide halogenated porphyrins, namely chlorins and bacteriochlorins, and their applications thereof” (LUZITIN, S.A., priority 2015, dated 2019).

What was measured:
P. acnes (ATCC 6919) = experiment: In vitro phototoxicity towards Propionibacterium acnes; type: cell-based; conditions: 2 μM, 30 min incubation, irradiated with 10 J/cm^2
Experimental: Phototoxicity towards bacteria was evaluated in vitro against P. acnes (ATCC® 6919—Remel, Lenexa, Kans., USA) using light with the appropriate wavelength. P. acnes bacteria was cultured in Reinforced Clostridial Medium (Oxoid, Basingstok, UK) under anaerobic atmosphere at 37° C. Anaerobic growth conditions were obtained using an anaerobic jar with a sachet for anaerobic conditions generation (Anaerocult A, Merck, Darmstadt, Germany). P. acnes suspension was diluted with culture medium to an optical density at 620 nm of 1.3, corresponding to approximately […] CFU/ml (colony-forming units per milliliter). The diluted suspension was centrifuged at 13000 rpm for 10 minutes, and re-suspended in PBS. Test compound stock solutions were dissolved in PEG400:DMSO ([…] 400:dimethyl sulfoxide) (55:45) and were diluted to the appropriate concentrations with PBS. The incubation of the test compounds with P. acnes was performed in DB Falcon black 96-well plates with clear flat-bottom (Franklin Lakes, N.J., USA), in the absence of light, during 30 minutes. […] After the incubation period, the viability of P. acnes was evaluated. […] The phototoxicity was measured according to the description in the Materials and Methods section. […]

[1] = Optical absorption (UV-Vis-NIR) in ethanol; type: physicochemical
Experimental: The UV-Vis-NIR optical absorption was recorded with an Agilent Cary5000 UV-Vis-NIR Spectrophotometer in the determination of the molar absorption coefficient and with Shimadzu UV-2100 spectrometer in routine measurements. The absorption spectra were recorded in the wavelengths from 300 nm up to 800 nm.
This is indicative of negligible aggregation between the molecules, which exist mostly as monomers at these concentrations in the solvents studied. Table 1 presents the infrared molar absorption coefficient (εmax) and wavelength maximum in ethanol of a typical carboxamide halogenated bacteriochlorin derivative of Formula (I). The same table also presents triplet lifetimes (τT) in air and N2 saturated solutions, fluorescence lifetime (τS), the quantum yields of fluorescence (ΦF), triplet state formation (ΦT), and singlet oxygen generation (ΦΔ) in ethanol, and photodegradation quantum yield (Φpd) in methanol:PBS (3:2). Triplet decays were clearly mono-exponential and in air-saturated ethanol the triplet lifetimes were in the range of 200 to 300 nanoseconds. Such values are consistent with diffusion limited energy transfer from the triplet state of the photosensitizer to molecular oxygen through a charge-transfer interaction (8). The absorption intensity of the test compounds in the photobleaching studies followed a mono-exponential decrease as a function of the illumination time.

[2] = system: CT26 (mouse colon adenocarcinoma) cell line; experiment: In vitro phototoxicity / dark toxicity towards CT26 cells; type: cell-based
Experimental: Phototoxicity towards cancer cell lines was evaluated in vitro using A549 (human lung adenocarcinoma) and CT26 (mouse colon adenocarcinoma) cell lines. The cells were cultured in Dulbecco's modified Eagles's medium (DMEM) supplemented with 10% heat-inactivated fetal bovine serum and 1% penicillin. Cells were plated at a density of 20,000/well and 15,000/well respectively, in flat-bottom 96-well plates. On the following day, diluted solutions of the test compound were prepared (1 mM stock) and added to the cells for 30-min incubation. […] The wells were washed two times with PBS and irradiated after 30-min of incubation using the LED light described above. Light dose was 1 J/cm^2. The medium was replaced with fresh one after irradiation and the plates were incubated for 24 h, at which time the cellular viability was assessed by resazurin method using a microplate spectrophotometer (Synergy HT Biotek).
This example describes the evaluation of in vitro phototoxicity of a carboxamide bacteriochlorin with formula IX after light irradiation, and their potential for PDT of cancer. The formulation employed was the same as that of Example 4. […] The phototoxicity was measured according to the description in the Materials and Methods section. The phototoxicity of the test compound was assessed in terms of the percentage of survival of the cells for various concentrations of the test compound incubated for 30 min, followed by washings with PBS, addition of the culture medium and illumination with a light dose of 1 J/cm^2.

With CNC(=O)c1c2nc(c(-c3c(F)cccc3F)c3ccc(cc4nc(c(-c5c(F)cccc5F)c5ccc1[nH]5)CC4)[nH]3)CC2 [formula IX, 5-methylcarboxamide-10,20-bis-(2,6-difluorophenyl)bacteriochlorin] the “log CFU P. Acnes (reduction of bacterial CFU, orders of magnitude)” value (P. acnes (ATCC 6919)) was 9 log CFU, the “λ (wavelength of maximum infrared absorption)” value [1] was 734 nm and the “ε (λ) molar absorption coefficient” value ([1]; at 734 nm) was 69 10^3 M^−1 cm^−1. For the same compound, the IC50 ([2]; 30 min incubation, irradiated with 1 J/cm^2) was 5.8 nM, the “photosensitizer concentration at which nearly all cells are killed” value ([2]; CT26, 30 min incubation, 1 J/cm^2 (FIG. 6)) was 50 nM and the “concentration with no signs of toxicity in the dark” value ([2]; CT26, incubation in the dark for 30 min) was “up to 40 μM”.
